# Assay results: patent publication US8188109B2, “Benzoquinolizinium salt derivatives as anticancer agents” (Naxospharma S.r.l., priority 2009, dated 2012)
# pIC50: −log10 of the molar value. Like-named read-outs stand apart in the source and are kept apart here.
# Experiments:
# [1] = test system: 2008 cell line (serous cystadenocarcinoma of the ovary); test: Cell growth assay (crystal violet dye), 2008 cells; type: cell-based, human; details: read-out: IC50 (cell growth inhibition)
# Method: (§1) For the determination of the in vitro antitumour activities, the compounds of the invention were assayed in a panel of sensible, resistant and refractary tumour cell lines, which are only exemplary for the antitumour activity of the inventive compounds, and are not to be construed as limiting their antitumour activities only to the cell lines set forth herein. Cell lines. The 2008 cell line was established from a patient with serous cystadenocarcinoma of the ovary and the cDDP-resistant C13* subline, about 15-fold resistant to cDDP, was derived from the parent 2008 cell line by monthly exposure to cDDP, followed by chronic exposure to step-wise increases in cDDP concentration (Cancer Research 52, 1895, 1992). The cell lines were grown as monolayers in RPMI 1640 medium containing 10% heat-inactivated fetal bovine serum and 50 μg/mL gentamycin sulfate. All cell media and serum were purchased from (Lonza, Verviers, Belgium). Cultures were equilibrated with humidified 5% CO2 in air at 37° C. All studies were performed in Mycoplasma negative cells, as routinely determined with the MycoAlert Mycoplasma detection kit (Lonza, Walkersville, Md., USA).
# (§2) Cell growth assay. Cell growth was determined by a modification of the crystal violet dye assay (Analytical biochemistry, 182, 16 1989). On selected days, after removal of the tissue culture medium, the cell monolayer was fixed with methanol prior to staining with 0.2% crystal violet solution in 20% methanol for at least 30 minutes. After washing several times with distilled water to remove the dye excess, the cells were let to dry. The incorporated dye was solubilized in acidic isopropanol (1N HCl : 2-propanol, 1:10). After appropriate dilution, dye was determined spectrophotometrically at 540 nm. The extracted dye was proportional to cell number. Percentage of cytotoxicity was calculated by comparing the absorbance of cultures exposed to the compounds of the invention to non-exposed (control) cultures. Percentage of cytotoxicity is here reported as the half maximal inhibitory concentration (IC50), which is a measure of the effectiveness of a compound of the invention in inhibiting cell growth by half with respect to control (100%).
# [2] = test system: cDDP-resistant C13* subline; test: Cell growth assay (crystal violet dye), C13* cells; type: cell-based, human; details: read-out: IC50 (cell growth inhibition)
# Method: as §1, §2
# [3] = test system: human ovarian cancer cell line A2780; test: Cell growth assay (crystal violet dye), A2780 cells; type: cell-based; details: 72 hrs exposure, read-out: IC50 (cell growth inhibition)
# Method: (§3) The human ovarian cancer cell line A2780 and a platinum-resistant subline selected in vitro by stepwise increases of cisplatin concentration in the medium were from University of Modena and Reggio Emilia. The cisplatin resistant A2780 cells were challenged weekly with 50 uM cisplatin for 1 hr. Both cell lines were maintained in RPMI 1640 medium with 10% (vol/vol) fetal calf serum, penicillin (62.9 mg/L), and streptomycin (100 mg/L) (GIBCO).
# as §2
# HeLa cells = test: Cell proliferation MTT assay, HeLa; type: cell-based; details: Homo sapiens, 24 h, read-out: MTT cell proliferation, percentage compared to control cells considered as 100%; for activity at 1 µM: compound at 1 uM; for activity at 10 µM: compound at 10 uM
# Method: (§4) Cell cultures and treatments. Human tumor cells (HeLa from uterin cervix and HCT116 from colon carcinoma) were grown at 37° C. in humidified atmosphere containing 5% CO2 in D-MEM supplemented with 10% FCS, 4 mM glutamine, 2 mM Na pyruvate, 100 U/mL penicillin and 0.1 mg/mL streptomycin (all reagents were from Celbio, Pero, Italy). HeLa cells are the most widely used human tumor cell line; HCT 116 colon carcinoma cell line has proven to be extremely resistant to conventional chemotherapy. Cells were treated with the compounds of the invention at a fixed dose of 10 uM for 24 h, eventually followed by 24 of recovery in drug free medium. As a positive control of growth inhibition, cells were treated with 10 uM etoposide. Some of the inventive were also assayed at a dose of 1 uM.
# (§5) Cell proliferation assays—MTT assay. Cells are seeded in 96 multiwell-plates at the density of 10^3/100 μl (except fibroblasts that are seeded at the density of 1.5×10^3/100 μl). Cells are treated 24 h later with the drug for 24 h eventually followed by 24 h of recovery in drug-free medium. At the end of the treatments, 20 μl of CellTiter 96 Non-Radioactive Cell Proliferation Assay (MTT; Promega, Milano, Italy) are added to each well. Plates are then incubated for 4 h at 37° C. in the dark and analyzed with a reader of microplates (Gio. De Vita, Roma, Italy) at 492 nm. Experiments are performed in quadruplicate and repeated three times. Data are expressed in the following Tables 2a-c as the percentage compared to control cells considered as 100%.
# [4] = test system: cisplatin resistant A2780 cells (A2780/CP); test: Cell growth assay (crystal violet dye), A2780/CP cells; type: cell-based, human; details: 72 hrs exposure, read-out: IC50 (cell growth inhibition)
# Method: as §3, §2
# [5] = test system: HCT 116 colon carcinoma cell line; test: Cell proliferation MTT assay, HCT 116; type: cell-based; details: Homo sapiens, HCT-116, 24 h, read-out: MTT cell proliferation, percentage compared to control cells considered as 100%; for activity at 1 µM: HCT 116, compound at 1 uM, 24 h exposure; for activity at 10 µM: HCT 116, compound at 10 uM
# Method: as §4, §5
# tumour cell lines = test: In vitro antitumour activity, panel of tumour cell lines (statement in words); type: cell-based, human; details: compared with the novel compounds / prior art protoberberines
# Method: as §1
# [6] = Homo sapiens, 2008 cells, 72 hrs exposure
# [7] = Homo sapiens, C13* cells, 72 hrs exposure
# [8] = 24 h + 24 h recovery in drug-free medium
SMILES,"pIC50 [1, 6]","pIC50 [2, 7]",pIC50 ([3]; Homo sapiens),activity at 1 µM (HeLa cells; [8]),activity at 1 µM (HeLa cells),activity at 10 µM (HeLa cells; [8]),activity at 10 µM (HeLa cells),"pIC50 ([1]; Homo sapiens, 72 h)","pIC50 ([2]; Homo sapiens, C13, 72 h)","pIC50 ([4]; Homo sapiens, A2780C/P)",activity at 1 µM [5],"activity at 10 µM [5, 8]",activity at 10 µM ([5]; 24 h),antitumour activity (in words) (tumour cell lines),pIC50 [3],"pIC50 ([1]; 2008 cells, 72 hrs exposure)","pIC50 ([2]; C13* cells, 72 hrs exposure)",pIC50 [4]
"O=c1[nH]cc(F)c(=O)[nH]1 [5-FU, 5-fluoro-2,4(1H,3H)-pyrimidinedione, reference compound]",5.00,5.10,,,,,,,,,,,,,,,,
"COc1ccc2cc3[n+](cc2c1OC)CCc1cc2c(cc1-3)OCO2 [Berberine, 9,10-dimethoxy-5,6-dihydrobenzo[g]-1,3-benzodioxolo[5,6-a]quinolizinium chloride, reference compound]",,,5.40,168%,178%,92.9%,121%,5.00,5.22,5.60,201%,93.3%,166%,,,,,
"COc1ccc2c(Cc3ccccc3)c3[n+](cc2c1OC)CCc1cc2c(cc1-3)OCO2.[I-] [Comp Ex, 13-benzyl-9,10-dimethoxy-5,6-dihydrobenzo[g]-1,3-benzodioxolo[5,6-a]quinolizinium iodide, reference compound]",5.04,5.30,5.60,93.6%,139%,74.5%,98%,,,5.48,119%,22.2%,20.4%,much lower antitumour activity,,,,
"COc1cc([C@@H]2c3cc4c(cc3[C@@H](O[C@@H]3O[C@@H]5CO[C@@H](C)O[C@H]5[C@H](O)[C@H]3O)[C@H]3COC(=O)[C@H]23)OCO4)cc(OC)c1O [Etoposide, 4′-demethylepipodophyllotoxin 9-[4,6-O-ethylidene-beta-D-glucopyranoside], reference compound]",,,,59.5%,94.3%,1%,74.8%,,,,139%,96.2%,104%,,,,,
"COc1ccc2c(CCCc3ccccc3)c3[n+](cc2c1OC)CCc1cc2c(cc1-3)OCO2 [NAX012, 13-(3-phenylpropyl)-9,10-dimethoxy-5,6-dihydrobenzo[g]-1,3-benzodioxolo[5,6-a]quinolizinium iodide]",5.44,5.66,6.22,,,41.3%,72.4%,,,6.22,52.1%,34.8%,0%,,,,,
"COc1ccc(CCc2c3[n+](cc4c(OC)c(OC)ccc24)CCc2cc4c(cc2-3)OCO4)cc1 [NAX013, 13-[2-(4-methoxyphenyl)ethyl]-9,10-dimethoxy-5,6-dihydrobenzo[g]-1,3-benzodioxolo[5,6-a]quinolizinium iodide]",5.18,5.62,6.00,,,60.8%,74.5%,,,6.00,58.1%,60.2%,10%,,,,,
"COc1ccc2c(CCc3ccc(Cl)cc3)c3[n+](cc2c1OC)CCc1cc2c(cc1-3)OCO2 [NAX014, 13-[2-(4-chlorophenyl)ethyl]-9,10-dimethoxy-5,6-dihydrobenzo[g]-1,3-benzodioxolo[5,6-a]quinolizinium iodide]",5.24,5.74,5.85,59.4%,92.1%,45.4%,71.9%,,,6.00,,15.4%,49.5%,,,,,
"COc1ccc2c(CCC(c3ccccc3)c3ccccc3)c3[n+](cc2c1OC)CCc1cc2c(cc1-3)OCO2 [NAX018, 13-(3,3-diphenylpropyl)-9,10-dimethoxy-5,6-dihydrobenzo[g]-1,3-benzodioxolo[5,6-a]quinolizinium iodide]",5.40,6.18,6.40,45.8%,64%,11.3%,40.6%,,,6.00,68.2%,13.7%,30.6%,,,,,
"COc1ccc2c(CCc3c[nH]c4ccccc34)c3[n+](cc2c1OC)CCc1cc2c(cc1-3)OCO2 [NAX019, 13-[2-(indol-3-yl)ethyl]-9,10-dimethoxy-5,6-dihydrobenzo[g]-1,3-benzodioxolo[5,6-a]quinolizinium iodide]",,,,,,33.5%,62.8%,,,,,32.1%,6%,,,,,
"COc1ccc2c(CC(=O)n3ccc4cc(Cl)ccc43)c3[n+](cc2c1OC)CCc1cc2c(cc1-3)OCO2 [NAX030, 13-[(5-chloroindol-1-yl)carbonylmethyl]-9,10-dimethoxy-5,6-dihydrobenzo[g]-1,3-benzodioxolo[5,6-a]quinolizinium iodide]",,,5.35,,,,,,,5.60,,,,,,,,
"N.N.[Cl][Pt][Cl] [cDDP, cis-diaminedichloroplatinum, reference compound]",,,,,,,,,,,,,,,5.70,5.44,4.77,4.70
